In patent publication US7115258B2, “Vesicular monoamine transporter gene therapy in parkinson's disease” (priority 1998, dated 2006):

Tested on: dopamine release
Experiment: Release of stored dopamine from PFVMAA cells
Format: cell-based, rat
Conditions: 20 μM A23187 in physiological media, 20 minutes
Experimental: FIG. 3A and FIG. 3B. Release of stored dopamine from PFVMAA. (FIG. 3A) Time course of dopamine release from PFVMAA cells that were preincubated with 1 μM of L-DOPA for 2 hours to store dopamine (intracellular: open bar). After pre-incubation, the media was replaced with fresh media without L-DOPA and dopamine levels in the media (solid bar) were measured at one hour intervals. (FIG. 3B) The dopamine levels in the media (solid bar) and in the cell pellets (open bars) of PFVMAA cells in different calcium conditions. Cells were preincubated with 1 μM L-DOPA in the media for 3 hours, which were replaced with fresh physiological media (control), physiological media with 20 μM A23187 (Sigma), or by calcium-free media with 10 mM EGTA for 20 minutes of further incubation. Data represent the mean±SEM (n=3). n.d., nondetectable levels. n.s., no significant, * p<0.01, Student t-test analysis.
Catecholamine measurements were done in DMEM media (1 ml in each well) except for the experiments on Ca^++ effect which were done in physiological incubation medium consisting of 135 mM NaCl, 3 mM KCl, 2 mM CaCl2, 2 mM MgCl2, 10 mM glucose, 200 μM ascorbic acid, and 10 mM HEPES, pH 7.3.
To investigate the mechanism of dopamine release in the PFVMAA cells, intracellular calcium was manipulated by using calcium-free media and calcium ionophore. […]

For `CNc1ccc2oc(C[C@H]3O[C@@]4(CC[C@H]3C)O[C@H]([C@H](C)C(=O)c3ccc[nH]3)[C@H](C)C[C@H]4C)nc2c1C(=O)O` [calcium ionophore, A23187], the “effect on dopamine release from PFVMAA cells” value was “trend for increased release of dopamine”.
